Test in all cases: inhibition of tumour cell growth, NCI panel, 48 h
For experiment [1], the system named is CCRF-CEM.
In experiment [2] the test system is EKVX.
The test system of experiment [3] is HCT-15.
The subject of experiment [4] is HOP-62.
Experiment [5] deals with HT-29.
Experiment [6] deals with MCF7.
In experiment [7] the test system is MDA-N.
In experiment [8] the test system is MOLT-4.
The subject of experiment [9] is OVCAR-3.
Experiment [10] relates to RPMI-8226.
Experiment [11] has as its system SF-295.
Experiment [12] deals with SK-MEL-28.
In experiment [13] the test system is SN12C.
Experiment [14] relates to SW-620.
For experiment [15], the system named is UACC-257.
Experiment [16] relates to HL-60.
Experiment [17] concerns HOP-92.
In experiment [18] the test system is NCI-H522.
In experiment [19] the test system is OVCAR-8.
Experiment [20] deals with SR.

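Values below derive from 48-hour exposures of cells grown in 96-well plates, with endpoints linearly interpolated between the two concentrations bracketing the appropriate inhibition level. GI50: concentration for 50% inhibition of growth.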 Activity calls are given as the source filed them. No stated cut-off is given here; in the data, active = GI50 up to about 1.1 µM and inactive = higher.

Turning to `CCOC(=O)C(C(=O)COC(C)(C)C)[C@@H]1C=C[C@H](OC(C)=O)C1` (stereo partly drawn), the GI50 was 73.8 µM (inactive) in experiment [1]; > 100 µM (inactive) in experiment [2]; more than 100 µM in [3]; > 100 µM (inactive) in experiment [4]; > 100 µM (inactive) in experiment [5]; > 100 µM (inactive) in experiment [6]. The GI50 in experiment [7] is > 100 µM (inactive); in [8], 65.2 µM (inactive); in experiment [9] it was > 100 µM (inactive); in [10], > 100 µM (inactive); in [11], > 100 µM (inactive); in experiment [12], > 100 µM (inactive). Also, the GI50 in [13], in experiment [14] and in [15] was > 100 µM (inactive) throughout.
`CN(C)CCCN1c2ccc([N+](=O)[O-])cc2CCc2cccc([N+](=O)[O-])c21`: the GI50 in [1] was 16.7 µM (inactive); in [2], 16.1 µM (inactive); in experiment [3], 15.5 µM; in experiment [16], 18.1 µM (inactive); in experiment [4] it was 13.8 µM (inactive); in experiment [17], 11 µM (inactive). Also, the GI50 is 13.7 µM (inactive) in experiment [5]; 14.8 µM (inactive) in experiment [7]; 15.8 µM (inactive) in experiment [8]; 17.7 µM (inactive) in experiment [18]; 15.4 µM (inactive) in experiment [9]; 17 µM (inactive) in [19]. Moreover, the GI50 was 26.1 µM (inactive) in experiment [10]; 15 µM (inactive) in experiment [11]; 14.8 µM (inactive) in experiment [12]; 15.1 µM (inactive) in experiment [13]; 35.2 µM (inactive) in [20]; 16.1 µM (inactive) in experiment [14]. Besides, the GI50 in experiment [15] was 14.3 µM (inactive).
Regarding `Oc1ccc(Cl)cc1/N=N\c1c(O)ccc2ccccc12`, the GI50 in [1] was > 100 µM (inactive); in experiment [2], > 100 µM (inactive); in [3] it was more than 100 µM; in experiment [16] it was 78.9 µM (inactive); in experiment [4], > 100 µM (inactive); in experiment [17], > 100 µM (inactive). The GI50 was > 100 µM (inactive) in [5]; > 100 µM (inactive) in [7]; 35 µM (inactive) in experiment [8]; 59.4 µM (inactive) in [18]; > 100 µM (inactive) in [9]; > 100 µM (inactive) in experiment [19]. The GI50 in [10], in [11], in experiment [12], in [13], in [20] and in experiment [14] was > 100 µM (inactive) in each case. The GI50 in experiment [15] was > 100 µM (inactive).
In the case of `O=C1C2=Nc3ccccc3C(O)(C(=O)O)N2c2ccccc21` (stereo not drawn), the GI50 in [1] is 21.9 µM (inactive); in experiment [2], 60.7 µM (inactive); in [3], 15.2 µM; in experiment [16], 10.7 µM (inactive); in experiment [4] it was 25.4 µM (inactive); in experiment [17] it was 32.7 µM (inactive). The GI50 in experiment [5] is 21.2 µM (inactive); in experiment [6] it was 19.9 µM (inactive); in experiment [8] it was 17.6 µM (inactive); in experiment [18], 17.6 µM (inactive); in experiment [9], 14 µM (inactive); in experiment [19], 17.5 µM (inactive). Moreover, the GI50 in [10] was 6.68 µM (inactive); in [11], 17.2 µM (inactive); in experiment [12] it was 43.9 µM (inactive); in experiment [13] it was 28.8 µM (inactive); in [20] it was 14.6 µM (inactive); in [14] it was 19.4 µM (inactive). Besides, in [15], the GI50 was 10.7 µM (inactive).
On to `COC(=O)Cc1c(C2=Nc3ccccc3C2(O)CC(=O)OC)[nH]c2ccccc12` (stereo not drawn), for which the GI50 in experiment [1] was 20.1 µM (inactive); in [2] it was 36.6 µM (inactive); in experiment [3], 40.9 µM; in [16], 22 µM (inactive); in experiment [4], > 100 µM (inactive); in [17] it was 26.5 µM (inactive). Also, the GI50 in experiment [5] is > 100 µM (inactive); in [7], > 100 µM (inactive); in [8] it was 19.7 µM (inactive); in experiment [18], 18.9 µM (inactive); in [9] it was 62.1 µM (inactive); in experiment [19], 49.3 µM (inactive). Moreover, the GI50 in experiment [10] is 25.4 µM (inactive); in experiment [11] it was 45.8 µM (inactive); in experiment [12], 61.5 µM (inactive); in [13], 68.5 µM (inactive); in experiment [14], 47.3 µM (inactive); in experiment [15], > 100 µM (inactive).
Consider `COC(=O)c1cc(C)ccc1CC(Cc1ccccc1C)C(=O)OC` (stereo not drawn), for which the GI50 was 14 µM (inactive) in [1]; 18.7 µM (inactive) in experiment [2]; 21.4 µM in experiment [3]; 13.2 µM (inactive) in experiment [16]; > 100 µM (inactive) in experiment [4]; 14.4 µM (inactive) in experiment [17]. In addition, the GI50 is 22 µM (inactive) in [5]; 23.3 µM (inactive) in experiment [6]; 28.4 µM (inactive) in experiment [7]; 2.56 µM (inactive) in experiment [8]; 25.8 µM (inactive) in [18]; 24.4 µM (inactive) in experiment [9]. Further, the GI50 in [19] is 45.5 µM (inactive); in experiment [11], 38.2 µM (inactive); in experiment [12], 88.1 µM (inactive); in [13] it was 44.9 µM (inactive); in [14] it was 69 µM (inactive); in [15], 27 µM (inactive).
With `CC(=O)C(C)CCOC1(C)OCCC1C` (stereo not drawn), the GI50 was > 100 µM (inactive) in [1]; > 100 µM (inactive) in [2]; more than 100 µM in [3]; > 100 µM (inactive) in [16]; > 100 µM (inactive) in experiment [4]; > 100 µM (inactive) in experiment [17]. In addition, the GI50 in experiment [5], in experiment [6], in experiment [8], in experiment [18], in experiment [9] and in experiment [19] was > 100 µM (inactive) throughout. Also, the GI50 in experiment [10], in experiment [11], in experiment [12], in experiment [13], in experiment [20] and in [14] was > 100 µM (inactive) throughout. Moreover, in experiment [15], the GI50 was > 100 µM (inactive).
Regarding `CC(C)(C)OC(=O)NNC(=O)C1Cc2ccccc2OC1=O` (stereo not drawn), the GI50 in experiment [2] was > 100 µM (inactive); in experiment [3], more than 100 µM; in experiment [4], > 100 µM (inactive); in experiment [5], > 100 µM (inactive); in [7], > 100 µM (inactive); in [8], > 100 µM (inactive). Further, the GI50 in experiment [18], in [9], in experiment [19], in [10], in [11] and in experiment [12] was > 100 µM (inactive) in each case. The GI50 in experiment [13], in experiment [20], in [14] and in [15] was > 100 µM (inactive) throughout.

The values above are taken from ChEMBL document CHEMBL1201862, “PubChem BioAssay data set” (2004).
